Test results as given in US4977267A, “Intermediates for pyridyloxy compounds having utility as anti-peptic ulcer agents” (Fujirebio Kabushiki Kaisha, priority 1987, dated 1990).

Test system: gastric mucosa (lesion by necrotizing agent 0.4N HCl+50% ethanol)
Test: Test on the Action of Gastric Mucosal Protection
Type: in vivo, Male Donryu rats
Conditions: 10 mg/kg, p.o., 30 minutes before necrotizing agent (0.4N HCl+50% ethanol, 5 ml/kg); stomach isolated after one hour; rats fasted 24 hours
Experimental: Test on the Action of Gastric Mucosal Protection
Male Donryu rats (150 to 250 g) which had been caused to fast for 24 hours were used. In the test, a necrotizing agent (0.4N HCl+50% ethanol) was orally administered in a dose of 5 ml/kg 30 minutes after administering each of the test compounds (10 mg/kg, p.o.). One hour after administration of the necrotizing agent, the stomach was isolated and fixed by formalin. The area of a lesion was measured, and by comparison with a control group, the percent inhibition was determined.

In order of falling “Inhibition (%) of lesion area” value:
1. O=C(CSCc1ccco1)NC/C=C\COc1cc(CN2CCCCC2)ccn1 [Example 1, N-{4-[4-(piperidinomethyl)pyridyl-2oxy]-cis-2-butenyl)-2-(furfurylthio)acetamide]  66%
2. O=C(CS(=O)(=O)Cc1ccoc1)NC/C=C\COc1cc(CN2CCCCC2)ccn1 [Example 3, N-{4-[4-(piperidinomethyl)pyridyl-2-oxy]-cis-2-butenyl}-2-(3-furylmethylsulfonyl)acetamide]  62%
3. O=C(C[S+]([O-])Cc1ccco1)NC/C=C\COc1cc(CN2CCOCC2)ccn1 (stereo not drawn) [Example 12, N-{4-[4-(morpholinomethyl)pyridyl-2-oxy]-cis-2-butenyl}-2-(furfurylsulfinyl)acetamide]  38%
4. O=C(C[S+]([O-])Cc1ccco1)NCCCCOc1cc(CN2CCCCC2)ccn1 (centres unmarked) [Example 21, N-{4-[4-(piperidinomethyl)-pyridyl-2-oxy]-butyl}-2-(furfurylsulfinyl)acetamide]  32%
5. O=C(C[S+]([O-])Cc1ccco1)NC/C=C\COc1cc(CN2CCCCC2)ccn1 (stereo not drawn) [Example 2, N-{4-[4-(piperidinomethyl)pyridyl-2-oxy]-cis-2-butenyl}-2-(furfurylsulfinyl)acetamide]  32%

Target: T1, histamine H2 receptor (Cavia porcellus, UniProt P47747)
T1 construct: the right atrium was dissected from the hearts; from tissue; host or cells: isolated right atrium of male Hartley-strain guinea pigs
Test: Test on histamine H2 receptor antagonizing activity (isolated right atrium)
Design: species or system Hartley-strain guinea pigs
Conditions: guinea pig right atrium, heart rate; histamine dose-response; test compound 1×10^-6, 1×10^-7 M, 10 minutes; Van Rossum method; read-out: pA2 (converted)
Experimental: Test on histamine H2 receptor antagonizing activity
Hartley-strain guinea pigs (male 300 to 350 g) were stunned with a blow to the head. The heart was removed, and the right atrium was dissected from the hearts in the Krebs' solution bubbled with a […] was suspended in an Organ bath filled with the Krebs' solution kept at 32° C. The gaseous mixture was passed through the Organ bath, and a diastolic tension was adjusted to 1 g. The contraction of the atrium was recorded by a force displacement transducer, and the heart rate was measured by interlocking a heart rate meter to the transducer.
Histamine (used in the form of dihydrochloride; the same hereinafter) was added to the Organ bath cumulatively in a concentration of 1×10^-8 M to 3×10^-5 M. Thus, the dose-response curve of histamine was obtained. The Organ bath was washed several times, and each of the test compounds (1×10^-6, 1×10^-7 M) was added to the Organ bath, and a dose-response curve of histamine in the presence of the test compound was obtained 10 minutes later.
The pA2 value of each of the test compound was determined from the first histamine dose-response curve and the histamine dose-response curve obtained in the presence of the test compounds by the method of J. M. Van Rossum (Arch. Int. Pharmacodyn. Ther., 143-299, 1963).

T1 sequence (P47747 whole entry): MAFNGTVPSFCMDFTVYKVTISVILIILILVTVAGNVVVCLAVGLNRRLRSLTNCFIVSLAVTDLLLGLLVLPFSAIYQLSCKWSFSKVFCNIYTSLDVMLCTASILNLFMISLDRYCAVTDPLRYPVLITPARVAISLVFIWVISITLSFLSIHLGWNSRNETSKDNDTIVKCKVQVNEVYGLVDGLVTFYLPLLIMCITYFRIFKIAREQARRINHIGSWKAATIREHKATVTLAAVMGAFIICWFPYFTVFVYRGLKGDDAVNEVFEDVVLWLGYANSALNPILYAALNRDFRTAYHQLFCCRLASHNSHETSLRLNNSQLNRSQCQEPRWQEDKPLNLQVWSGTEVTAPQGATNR

In order of falling Kb:
1. O=C(C[S+]([O-])Cc1ccco1)NC/C=C\COc1cc(CN2CCOCC2)ccn1 (stereo not drawn) [Example 12, N-{4-[4-(morpholinomethyl)pyridyl-2-oxy]-cis-2-butenyl}-2-(furfurylsulfinyl)acetamide]  251 nM
2. O=C(C[S+]([O-])Cc1ccco1)NC/C=C\COc1cc(CN2CCCC2)ccn1 (stereo not drawn) [Example 10, N-{4-[4-(pyrrolidinomethyl)pyridyl-2-oxy]-cis-2-butenyl}-2-(furfurylsulfinyl)acetamide]  126 nM
3. O=C(CS(=O)(=O)Cc1ccoc1)NC/C=C\COc1cc(CN2CCCC2)ccn1 [Example 11, N-{4-[4-(pyrrolidinomethyl)pyridyl-2-oxy]-cis-2-butenyl}-2-(3-furylmethylsulfonyl)acetamide]  100 nM
